Test: In vitro aerosol deposition, Mark II Andersen Cascade Impactor (MMAD, FPF, GSD)
Format: physicochemical
Conditions: spray-dried carrier particles containing ciprofloxacin; UV assay of impactor plates
Excerpt: The pulmonary deposition of the empty effervescent carrier particles and the carrier particles containing nanoparticles were investigated in vitro by measuring the Mass Median Aerodynamic Diameter (MMAD) using a Mark II Andersen Cascade Impactor (Thermo Andersen, Smyrna, Ga.) in combination with a new high efficiency inhaler (described in U.S. Patent Application Publication No. 2004/0107963 to Finlay, W. H. & Wang, Z., filed Dec. 2, 2003, entitled “Device and Method for Deagglomeration of Powder for Inhalation”, the contents of which are herein incorporated by reference); Wang, Z., Grgic, B., and Finlay, W. H. (2006) A Dry Powder Inhaler with Reduced Mouth-throat Deposition. […]
The MMAD was calculated by linear interpolation of the cumulative mass distribution to obtain the particle size for which the cumulative mass under this size was 50% (Sham, J.-H., Zhang, Y., Finlay, W. H., Roa, W. H. & Lobenberg, R. (2004) Formulation and characterization of spray-dried powders containing nanoparticles for aerosol delivery to the lung. International Journal of Pharmaceutics. 269: 457-467). […]
Particle size and FPF were determined as noted above in Example 1. The dispersibility and content of ciprofloxacin of the spray-dried powders was determined using a Mark II Andersen impactor. […] The MMAD was calculated by a nonlinear regression fit of a log-normal function to the data. […]

O=C(O)c1cn(C2CC2)c2cc(N3CCNCC3)c(F)cc2c1=O [ciprofloxacin]
range size of most of the particles (cascade impactor): 4.9+/−1 μm
